Measurements from patent publication US9149455B2, “Methods of treating melanoma” (Abraxis BioScience, LLC, priority 2012, dated 2015).

How the values were obtained:
[1] = Phase 3 study of Nab-paclitaxel versus dacarbazine, treatment-related adverse events; format: in vivo, human
[2] = system: stage IV cutaneous metastatic malignant melanoma; experiment: Phase 3 study of Nab-paclitaxel versus dacarbazine in chemotherapy-naive patients, efficacy; format: in vivo, human
Excerpt: Chemotherapy-naïve patients with stage IV cutaneous metastatic malignant melanoma were enrolled. The patients had Eastern Cooperative Oncology Group (ECOG) PS 0-1, measurable disease, and lactate dehydrogenase (LDH) levels ≦2.0× Upper Limit of Normal (ULN), and had no current brain metastases.
The primary efficacy endpoint was progression-free survival (“PFS”) based on a blinded radiology assessment (according to Response Evaluation Criteria in Solid Tumors (“RECIST”) v1.0). The secondary efficacy endpoint was overall survival (“OS”). Other endpoints included objective response rate (“ORR”), disease control rate (“DCR”), and safety/tolerability.

metastatic melanoma = settings: advanced melanoma; Finn L et al., BMC Medicine 2012; cited from earlier work
[3] = Grade ≧3 treatment-related adverse events

## CN(C)/N=N/c1[nH]cnc1C(N)=O [Dacarbazine, dacarbazine]
[1]; Grade ≧3 TRAE
  Alopecia: 0%
  Anemia: 5%
  Fatigue: 2%
  Leukopenia: 7%
  Lymphocytopenia: 11%
  Neutropenia: 10%
  Peripheral Neuropathy: 0%
  Thrombocytopenia: 6%
[1]; [3]
  Patients with at least 1 TRAE: 28%
  Patients with at least 1 serious TRAE: 7%
[2]; BRAF V600E Mutation subgroup
  Median OS (interim): 11.2 months
  Median PFS: 3.5 months
[2]; BRAF Wild Type subgroup
  Median OS (interim): 11.1 months
  Median PFS: 2.5 months
[2]; BRAF status Unknown subgroup
  Median OS (interim): 9.9 months
  Median PFS: 2.2 months
[2]; all patients, Nab-paclitaxel 150 mg/m^2 iv days 1, 8, 15 of 28-day cycle vs dacarbazine 1000 mg/m^2 iv day 1 of 21-day cycle, RECIST v1.0, P=0.044
  progression free survival (PFS) by independent radiology review: 2.5 months
[2]; all patients, at time of PFS analysis, 64% of patients had an event
  Median OS, planned interim analysis: 10.7 months
[2]; blinded radiology assessment
  Best Response: Not Evaluable: 25%
  Best Response: PD: 48%
  Best Response: SD: 16%
  DCR: 27%
  ORR: 11%
  PR (listed under DCR): 11%
[2]; blinded radiology assessment, confirmed
  Best Response: PR: 11%

## CCCS(=O)(=O)Nc1ccc(F)c(C(=O)c2c[nH]c3ncc(-c4ccc(Cl)cc4)cc23)c1F [vemurafenib]
Metastatic melanoma
  toxicity: low toxicity

## Ipilmumab: anti-CTLA-4 antibody, FDA approved 2011 for advanced melanoma
Metastatic melanoma
  improvement of median survival time: two
